Experimental data reported in patent US6068838A, “Purified multimerase” (Baxter Aktiengesellschaft, priority 1996, dated 2000).
Where two headings read alike, the source gives them in different places. Blank lines part the entries; values can stand above or below the compound they belong to. Residues, ends and D or L forms follow the SMILES beside them. *: point of attachment. Cbz = O=C(OCc1ccccc1)*; CHN2 = [N-]=[N+]=C*

How the values were obtained:
vWF-cleaving protease [1] = target: T1, vWF-cleaving protease (Homo sapiens, UniProt Q76LX8); experiment: Influence of metal ions on the activity of the vWF-cleaving protease; assay type: biochemical; conditions: 95 μl protease preincubated 15 minutes at 37° C. with 5 μl of 0.2 M salt solution
T1 construct: Purification of Protease from Plasma; from tissue; host or cells: plasma (fibrinogen removed before chromatography)
T1 sequence (Q76LX8 75-1427): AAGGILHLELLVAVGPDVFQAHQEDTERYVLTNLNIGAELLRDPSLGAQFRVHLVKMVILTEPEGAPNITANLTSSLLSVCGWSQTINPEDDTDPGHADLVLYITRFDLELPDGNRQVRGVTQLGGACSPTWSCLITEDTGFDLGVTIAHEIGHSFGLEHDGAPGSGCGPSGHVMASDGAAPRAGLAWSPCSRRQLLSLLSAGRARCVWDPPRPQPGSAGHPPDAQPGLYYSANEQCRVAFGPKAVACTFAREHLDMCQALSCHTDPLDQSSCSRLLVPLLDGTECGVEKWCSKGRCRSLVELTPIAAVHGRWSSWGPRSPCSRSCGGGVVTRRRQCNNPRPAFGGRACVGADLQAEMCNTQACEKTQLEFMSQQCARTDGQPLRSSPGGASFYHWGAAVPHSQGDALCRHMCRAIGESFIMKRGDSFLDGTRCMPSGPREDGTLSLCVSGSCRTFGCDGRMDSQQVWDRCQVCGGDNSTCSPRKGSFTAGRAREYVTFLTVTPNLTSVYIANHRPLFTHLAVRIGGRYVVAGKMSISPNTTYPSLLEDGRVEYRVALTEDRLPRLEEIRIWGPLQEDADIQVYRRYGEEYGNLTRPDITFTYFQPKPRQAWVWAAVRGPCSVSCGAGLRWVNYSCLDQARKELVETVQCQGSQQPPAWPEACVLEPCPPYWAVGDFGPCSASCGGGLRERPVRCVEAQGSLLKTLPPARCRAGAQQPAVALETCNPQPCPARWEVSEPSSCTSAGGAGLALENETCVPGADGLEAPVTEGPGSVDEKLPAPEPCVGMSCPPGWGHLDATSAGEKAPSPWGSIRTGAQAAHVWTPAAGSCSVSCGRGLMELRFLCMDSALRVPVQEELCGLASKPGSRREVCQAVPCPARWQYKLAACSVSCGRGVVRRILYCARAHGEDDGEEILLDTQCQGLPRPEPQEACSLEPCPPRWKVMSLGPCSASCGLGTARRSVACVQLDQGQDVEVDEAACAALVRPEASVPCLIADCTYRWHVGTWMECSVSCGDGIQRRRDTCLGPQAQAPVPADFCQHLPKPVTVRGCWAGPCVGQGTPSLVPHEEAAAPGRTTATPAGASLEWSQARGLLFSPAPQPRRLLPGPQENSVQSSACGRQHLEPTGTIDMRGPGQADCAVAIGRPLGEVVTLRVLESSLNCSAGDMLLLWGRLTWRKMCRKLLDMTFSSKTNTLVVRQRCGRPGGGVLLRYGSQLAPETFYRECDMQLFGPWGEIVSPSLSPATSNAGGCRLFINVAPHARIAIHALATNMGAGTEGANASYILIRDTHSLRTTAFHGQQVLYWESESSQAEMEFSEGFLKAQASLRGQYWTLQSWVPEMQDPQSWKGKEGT

vWF-cleaving protease [2] = target: T1, vWF-cleaving protease; experiment: Effect of protease inhibitors on vWF degradation; assay type: biochemical; conditions: for effect of peptidyl-diazomethylketone inhibitors on proteolytic degradation of vWF: final concentration 0.1 mM during preincubation with barium-activated protease
plasmin = target: T2, plasmin (Homo sapiens, UniProt P00747); experiment: Degradation of vWF with plasmin with and without inhibitors; assay type: biochemical; conditions: for effect of inhibitor on plasmin-induced reduction of high multimers of cryoprecipitate: incubation for more than 8 hours; for effect of inhibitor on plasmin degradation of r-vWF: plasmin reduced to 1:10, about 20 hours
T2 construct: plasmin being diluted to 0.2 U/ml in 20 mM TBS buffer, pH 8.3
T2 sequence (P00747 581-810): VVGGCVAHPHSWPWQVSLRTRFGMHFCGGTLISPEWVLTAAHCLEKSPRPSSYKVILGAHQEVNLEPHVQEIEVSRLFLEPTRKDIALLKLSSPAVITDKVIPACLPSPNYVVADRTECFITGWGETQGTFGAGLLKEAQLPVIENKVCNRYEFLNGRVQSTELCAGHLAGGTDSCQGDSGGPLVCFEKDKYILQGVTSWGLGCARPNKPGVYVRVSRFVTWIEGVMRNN
T2 sequence (P00747 97-580): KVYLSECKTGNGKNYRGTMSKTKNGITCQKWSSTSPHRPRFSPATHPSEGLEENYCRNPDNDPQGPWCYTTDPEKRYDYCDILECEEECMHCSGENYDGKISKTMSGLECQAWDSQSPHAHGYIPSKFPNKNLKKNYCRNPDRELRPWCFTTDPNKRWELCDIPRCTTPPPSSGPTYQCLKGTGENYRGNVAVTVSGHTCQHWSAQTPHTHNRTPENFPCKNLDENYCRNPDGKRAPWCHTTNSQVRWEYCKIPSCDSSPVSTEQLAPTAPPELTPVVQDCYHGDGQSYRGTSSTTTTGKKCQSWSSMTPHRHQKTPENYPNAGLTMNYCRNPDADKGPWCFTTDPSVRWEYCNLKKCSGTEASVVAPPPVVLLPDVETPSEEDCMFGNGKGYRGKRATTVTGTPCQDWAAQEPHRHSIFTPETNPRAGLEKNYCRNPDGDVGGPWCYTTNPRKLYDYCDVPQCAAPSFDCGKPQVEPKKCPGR
Procedure: (§1) Analysis of the r-vWF and its proteolytic degradation products was performed on 1% and 2% agarose gels, also according to the method of Ruggeri et al. (Blood 57 (1981), 1140-1143). The vWF multimers were made visible by immunoenzymatic staining according to Aihara et al. (Thromb. Haemostas. 55 (1986), 263-267). A rabbit-anti-von Willebrand factor-antiserum (from Dakopatts, Glostrup, Denmark) was used as the primary antibody, and an alkaline phosphatase-conjugated, affinity-purified goat-anti-rabbit IgG H+L-antibody (from Axell Accurate Chemical and Scientific Corp, Westburg, N.Y.) served as the secondary antibody. Staining of the protein bands was effected by means of the nitroblue tetrazolium/bromochloro-indolyl-phosphate substrate system.

vWF protease = target: T3, vWF protease (Homo sapiens, UniProt Q76LX8); experiment: Degradation of vWF by the vWF protease in the presence of aprotinin or PPACK; assay type: biochemical; conditions: for degradation of recombinant vWF by the protease in the presence of inhibitor: inhibitor concentration at which no protease activity detected with a chromogenic substrate of plasmin
T3 construct: the preparation prepared according to the invention with the vWF-specific protease; from tissue
T3 sequence (Q76LX8 75-1427): T1 sequence (Q76LX8 75-1427)
Procedure: The concentration of aprotinin and PPACK was chosen such that no protease activity could be detected with a chromogenic substrate of plasmin.
In this experiment, the degradation products of the recombinant vWF with the protease according to the invention were the satellite bands developed and the central bands. Actually all bands were very similar to plasmatic vWF (FIG. 14 (panel C)).
as §1

[3] = Incubation of r-vWF in vWF-deficient human plasma; assay type: in vitro ADME
Procedure: Further tests investigated whether a proteolytic degradation of r-vWF took place during incubation with human plasma (cf. FIG. 18). For this, the r-vWF preparation was mixed with equal volumes of a vWF-deficient plasma (cf. FIG. 18 (panel A)) and incubated for 48 hours, samples being taken at various times. No change of the r-vWF over time could be detected.
as §1

Compound: [Ba+2].[Cl-].[Cl-] [Ba^2+, BaCl2]
activation of the protease by metal ions (vWF-cleaving protease [1]): substantial activation

Compound: [Ca+2].[Cl-].[Cl-] [Ca^2+, CaCl2]
activation of the protease by metal ions (vWF-cleaving protease [1]): substantial activation

Compound: CC(=O)[O-].CC(=O)[O-].[Cd+2] [Cd^2+, Cd(CH3 COO)2]
activation of the protease by metal ions (vWF-cleaving protease [1]): no activation

Compound: O=S(=O)([O-])[O-].[Co+2] [Co^2+, CoSO4]
activation of the protease by metal ions (vWF-cleaving protease [1]): no activation

Compound: O=S(=O)([O-])[O-].[Cu+2] [Cu^2+, CuSO4]
activation of the protease by metal ions (vWF-cleaving protease [1]): no activation

Compound: O=C(O)CN(CCN(CC(=O)O)CC(=O)O)CC(=O)O [EDTA]
inhibition of the barium-preincubated protease (vWF degradation by SDS agarose electrophoresis and immunoblotting) (vWF-cleaving protease [2]): inhibit the barium-preincubated protease completely

Compound: O=C(O)CN(CCOCCOCCN(CC(=O)O)CC(=O)O)CC(=O)O [ESTA, EGTA]
inhibition of the barium-preincubated protease (vWF degradation by SDS agarose electrophoresis and immunoblotting) (vWF-cleaving protease [2]; inhibitor final concentration 10 mM, 15 minutes preincubation at 37° C.): inhibit the barium-preincubated protease completely

Compound: NC(=O)CI [IAA, iodoncetamide]
inhibition of the barium-preincubated protease (vWF degradation by SDS agarose electrophoresis and immunoblotting) (vWF-cleaving protease [2]): did not result in protease inhibition

Compound: [Cl-].[Cl-].[Mg+2] [Mg^2+, MgCl2]
activation of the protease by metal ions (vWF-cleaving protease [1]): slight activation

Compound: [Cl][Mn][Cl] [Mn^2+, MnCl2]
activation of the protease by metal ions (vWF-cleaving protease [1]): no activation

Compound: CCN1C(=O)C=CC1=O [NEM, N-ethylmaleimide]
inhibition of the barium-preincubated protease (vWF degradation by SDS agarose electrophoresis and immunoblotting) (vWF-cleaving protease [2]): did not result in protease inhibition
protease inhibition with inhibitor also incorporated into the dialysis solution (vWF-cleaving protease [2]): partial protease inhibition

Compound: [Cl][Ni][Cl] [Ni^2+, NiCl2]
activation of the protease by metal ions (vWF-cleaving protease [1]): no activation

Compound: O=S(=O)(F)Cc1ccccc1 [PMSF, phenylmethylsulfonyl fluoride]
inhibition of the barium-preincubated protease (vWF degradation) (vWF-cleaving protease [2]): no inhibition

Compound: N=C(N)NCCC[C@H](NC(=O)[C@@H]1CCCN1C(=O)[C@H](N)Cc1ccccc1)C(=O)CCl [PPACK, Diphenylalanylprolyl arginine-chloromethylketone]
effect of inhibitor on plasmin-induced reduction of high multimers of cryoprecipitate (plasmin): prevented
effect of inhibitor on plasmin degradation of r-vWF (plasmin): prevented
degradation of cryoprecipitate vWF by vWF protease on addition of inhibitor (vWF protease): could not be prevented
degradation of recombinant vWF by the protease in the presence of inhibitor (vWF protease): degraded identically

Compound: [Cl-].[Cl-].[Sr+2] [Sr^2+, SrCl2]
activation of the protease by metal ions (vWF-cleaving protease [1]): substantial activation

Compound: Cc1ccc(S(=O)(=O)N[C@@H](CCCCN)C(=O)CCl)cc1 [TLCK, N-α-p-tosyl-L-lysine-chloromethylketone]
inhibition of the barium-preincubated protease (vWF degradation) (vWF-cleaving protease [2]): no inhibition

inhibition of the barium-preincubated protease (vWF degradation) (vWF-cleaving protease [2]; inhibitor 1 mM, 15 minutes preincubation at 37° C.): no inhibition
Compound: Cc1ccc(S(=O)(=O)N[C@@H](Cc2ccccc2)C(=O)CCl)cc1 [TPCK, N-α-p-tosyl-L-phenylalanine-chloromethylketone]

effect of peptidyl-diazomethylketone inhibitors on proteolytic degradation of vWF (vWF-cleaving protease [2]): active in the presence
Compound: CC(C)C[C@H](NC(=O)OCc1ccccc1)C(=O)N[C@@H](CC(C)C)C(=O)N[C@@H](Cc1ccc(O)cc1)C(=O)C=[N+]=[N-] [Z-Leu-Leu-Tyr-CHN2] (Cbz-Leu-Leu-Tyr-CHN2)

Compound: [N-]=[N+]=CC(=O)[C@H](Cc1ccccc1)NC(=O)[C@H](Cc1ccccc1)NC(=O)OCc1ccccc1 [Z-Phe-Phe-CH2, Z-Phe-Phe-CHN2] (Cbz-Phe-Phe-CHN2)
effect of peptidyl-diazomethylketone inhibitors on proteolytic degradation of vWF (vWF-cleaving protease [2]): impaired the proteolytic degradation of vWF

Compound: CC(C)[C@H](NC(=O)OCc1ccccc1)C(=O)N[C@H](C(=O)N[C@@H](Cc1ccc(O)cc1)C(=O)C=[N+]=[N-])C(C)C [Z-Val-Val-Tyr-CHN2] (Cbz-Val-Val-Tyr-CHN2)
effect of peptidyl-diazomethylketone inhibitors on proteolytic degradation of vWF (vWF-cleaving protease [2]): impaired the proteolytic degradation of vWF

Compound: [Cl-].[Cl-].[Zn+2] [Zn^2+, ZnCl2]
activation of the protease by metal ions (vWF-cleaving protease [1]): no activation

Compound: O=C(O)CC(O)(CC(=O)O)C(=O)O [citrate, Na3 -citrate]
inhibition of the barium-preincubated protease (vWF degradation by SDS agarose electrophoresis and immunoblotting) (vWF-cleaving protease [2]): partial inhibition

Compound: CC(=O)N[C@@H](CC(C)C)C(=O)N[C@@H](CC(C)C)C(=O)N[C@H](C=O)CCCNC(=N)N [leupeptin]
inhibition of the barium-preincubated protease (vWF degradation) (vWF-cleaving protease [2]): no inhibition

Compound: aprotinin
effect of inhibitor on plasmin-induced reduction of high multimers of cryoprecipitate (plasmin): prevented
effect of inhibitor on plasmin degradation of r-vWF (plasmin): prevented
inhibition of the barium-preincubated protease (vWF degradation) (vWF-cleaving protease [2]): no inhibition
degradation of cryoprecipitate vWF by vWF protease on addition of inhibitor (vWF protease): could not be prevented
degradation of recombinant vWF by the protease in the presence of inhibitor (vWF protease): degraded identically

Compound: r-vWF: Recombinant vWF factor produced according to FEBS-Letters 375, 259-262 (1995), singlet structure
change of r-vWF structure in control preparation ([3]; equal length of time at 37° C. in buffer media): no change of structure
change of r-vWF over time ([3]; mixed with equal volume of vWF-deficient plasma, incubated for 48 hours): No change
